The source made the active and inactive calls.
Experiments:
[1] = biological target: Glycogen synthase kinase-3 beta (Homo sapiens, UniProt P49841); type: functional;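 further: value comes from a broad kinome profiling panel, with GSK3B as the panel member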
Aurora kinase A = Aurora kinase A (Homo sapiens, UniProt O14965); type: functional;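 further: value from the Navigating the Kinome kinase panel profiling, panel entry STK6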
[2] = A cytotoxicity screen of small molecule inhibitors of the PhoP region in Salmonella typhi identified in the primary screen. [Related pubchem assays: 1850, 1864, 1985 ]; type: functional
[3] = biological target: T1, C-C chemokine receptor type 6 (Homo sapiens, UniProt P51684); experiment: analog antagonism of CCR6 beta-arrestin signaling – cell-based, luminescent beta-arrestin readout, SAR follow-up (AID 540334); type: functional
T1 sequence (P51684 whole entry): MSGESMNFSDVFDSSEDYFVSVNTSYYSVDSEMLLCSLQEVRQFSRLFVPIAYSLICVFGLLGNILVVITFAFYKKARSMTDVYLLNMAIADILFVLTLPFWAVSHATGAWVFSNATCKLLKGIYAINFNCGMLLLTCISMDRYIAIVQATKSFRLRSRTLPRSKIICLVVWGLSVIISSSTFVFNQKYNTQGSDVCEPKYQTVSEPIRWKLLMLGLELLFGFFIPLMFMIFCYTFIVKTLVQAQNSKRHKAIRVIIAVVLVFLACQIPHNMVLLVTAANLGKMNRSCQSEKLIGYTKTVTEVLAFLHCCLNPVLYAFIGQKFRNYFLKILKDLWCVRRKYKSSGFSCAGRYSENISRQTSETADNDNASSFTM

[4] = biological target: C-X-C chemokine receptor type 5 (Homo sapiens, UniProt P32302); experiment: inhibition of CXCL13-driven CXCR5 beta-arrestin recruitment – cell-based, luminescence, CHO-K1 PathHunter, selectivity assay for CCR6 antagonist project, SAR follow-up (AID 540340); type: functional
Sequence of C-X-C chemokine receptor type 5 (P32302 whole entry, the tested form may be a part): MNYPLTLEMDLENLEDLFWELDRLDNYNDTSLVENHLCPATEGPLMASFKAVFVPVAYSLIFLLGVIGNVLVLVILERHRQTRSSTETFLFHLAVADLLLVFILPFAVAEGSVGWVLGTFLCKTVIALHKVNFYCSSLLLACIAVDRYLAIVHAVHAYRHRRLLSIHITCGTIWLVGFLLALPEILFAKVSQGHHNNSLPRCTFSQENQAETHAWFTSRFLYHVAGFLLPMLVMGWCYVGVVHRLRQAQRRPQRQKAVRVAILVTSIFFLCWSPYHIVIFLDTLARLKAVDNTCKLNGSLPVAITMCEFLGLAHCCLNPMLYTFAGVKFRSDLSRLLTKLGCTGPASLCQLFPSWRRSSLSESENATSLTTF

Apelin receptor = Apelin receptor (Homo sapiens, UniProt P35414); experiment: apelin receptor antagonists, arrestin read-out – cell-based, luminescent, enzyme-fragment complementation, selectivity assay for CCR6 antagonist project, SAR follow-up (AID 588359); type: functional
Sequence of Apelin receptor (P35414 whole entry, the tested form may be a part): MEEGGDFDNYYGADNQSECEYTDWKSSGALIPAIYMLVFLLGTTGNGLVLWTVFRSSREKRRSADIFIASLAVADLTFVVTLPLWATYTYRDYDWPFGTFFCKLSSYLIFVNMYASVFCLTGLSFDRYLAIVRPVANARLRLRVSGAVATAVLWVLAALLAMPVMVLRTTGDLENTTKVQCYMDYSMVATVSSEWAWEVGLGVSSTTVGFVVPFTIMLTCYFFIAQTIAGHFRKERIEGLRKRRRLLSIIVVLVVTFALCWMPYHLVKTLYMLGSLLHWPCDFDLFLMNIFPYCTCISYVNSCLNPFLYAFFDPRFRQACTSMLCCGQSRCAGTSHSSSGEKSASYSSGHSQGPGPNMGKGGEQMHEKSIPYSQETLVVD

[5] = biological target: T2, Sentrin-specific protease 7 (Homo sapiens, UniProt Q9BQF6); experiment: inhibition of human SENP7 cleavage activity – biochemical, luminescence, set 2, SAR follow-up (AID 588600); type: functional
T2 sequence (Q9BQF6 whole entry): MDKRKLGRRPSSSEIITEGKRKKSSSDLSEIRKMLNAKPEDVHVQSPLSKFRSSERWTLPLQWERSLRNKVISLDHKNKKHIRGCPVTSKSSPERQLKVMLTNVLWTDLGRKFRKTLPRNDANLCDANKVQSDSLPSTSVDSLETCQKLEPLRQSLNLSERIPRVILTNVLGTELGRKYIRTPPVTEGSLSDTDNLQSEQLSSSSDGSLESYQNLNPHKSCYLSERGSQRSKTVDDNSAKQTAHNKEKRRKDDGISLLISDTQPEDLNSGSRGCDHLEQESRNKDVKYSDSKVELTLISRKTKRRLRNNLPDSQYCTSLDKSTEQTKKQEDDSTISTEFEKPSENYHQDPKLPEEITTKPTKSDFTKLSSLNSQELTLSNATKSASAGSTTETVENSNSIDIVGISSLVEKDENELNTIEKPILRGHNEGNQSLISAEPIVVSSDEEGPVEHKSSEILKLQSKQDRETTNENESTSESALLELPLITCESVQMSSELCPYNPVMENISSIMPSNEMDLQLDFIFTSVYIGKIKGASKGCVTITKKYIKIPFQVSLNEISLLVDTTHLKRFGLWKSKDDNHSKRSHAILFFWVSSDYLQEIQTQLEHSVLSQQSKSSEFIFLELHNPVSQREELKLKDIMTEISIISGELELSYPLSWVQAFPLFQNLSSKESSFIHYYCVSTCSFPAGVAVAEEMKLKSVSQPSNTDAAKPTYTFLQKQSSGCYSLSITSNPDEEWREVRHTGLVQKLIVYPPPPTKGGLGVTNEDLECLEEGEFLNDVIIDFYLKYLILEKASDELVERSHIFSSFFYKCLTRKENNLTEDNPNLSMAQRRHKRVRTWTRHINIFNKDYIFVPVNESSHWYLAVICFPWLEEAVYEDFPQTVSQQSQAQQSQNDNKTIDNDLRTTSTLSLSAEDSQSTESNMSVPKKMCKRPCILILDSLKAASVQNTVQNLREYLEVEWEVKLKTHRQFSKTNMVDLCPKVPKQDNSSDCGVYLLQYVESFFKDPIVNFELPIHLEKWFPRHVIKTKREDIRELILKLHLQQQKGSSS

Caspase-3 [6] = biological target: T3, Caspase-3 (Homo sapiens, UniProt P42574); experiment: inhibition of recombinant caspase-3 activity – biochemical, luminescence, set 2, selectivity assay for SENP protease inhibitor project, SAR follow-up (AID 588599); type: functional
T3 sequence (P42574 whole entry): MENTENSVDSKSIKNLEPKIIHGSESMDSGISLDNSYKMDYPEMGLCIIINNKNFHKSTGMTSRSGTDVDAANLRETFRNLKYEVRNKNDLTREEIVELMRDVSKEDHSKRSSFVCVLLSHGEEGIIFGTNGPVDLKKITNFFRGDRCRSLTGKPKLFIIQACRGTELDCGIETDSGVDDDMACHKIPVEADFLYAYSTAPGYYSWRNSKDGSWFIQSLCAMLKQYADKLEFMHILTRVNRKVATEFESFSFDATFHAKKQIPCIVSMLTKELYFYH

[7] = biological target: T4, Sentrin-specific protease 8 (Homo sapiens, UniProt Q96LD8); experiment: inhibition of sentrin protease 8 – biochemical, luminescence, set 2, SAR follow-up (AID 588601); type: functional
T4 sequence (Q96LD8 whole entry): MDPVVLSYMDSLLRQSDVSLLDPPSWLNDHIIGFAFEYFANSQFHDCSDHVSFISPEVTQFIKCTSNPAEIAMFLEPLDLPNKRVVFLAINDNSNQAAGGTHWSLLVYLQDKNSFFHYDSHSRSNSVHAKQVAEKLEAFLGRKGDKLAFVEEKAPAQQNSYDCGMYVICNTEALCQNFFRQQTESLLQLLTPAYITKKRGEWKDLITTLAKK

[8] = biological target: T5, Sentrin-specific protease 6 (Homo sapiens, UniProt Q9GZR1); experiment: inhibition of human SENP6 catalytic domain – biochemical, luminescence, set 2, SAR follow-up (AID 588598); type: functional
T5 sequence (Q9GZR1 whole entry): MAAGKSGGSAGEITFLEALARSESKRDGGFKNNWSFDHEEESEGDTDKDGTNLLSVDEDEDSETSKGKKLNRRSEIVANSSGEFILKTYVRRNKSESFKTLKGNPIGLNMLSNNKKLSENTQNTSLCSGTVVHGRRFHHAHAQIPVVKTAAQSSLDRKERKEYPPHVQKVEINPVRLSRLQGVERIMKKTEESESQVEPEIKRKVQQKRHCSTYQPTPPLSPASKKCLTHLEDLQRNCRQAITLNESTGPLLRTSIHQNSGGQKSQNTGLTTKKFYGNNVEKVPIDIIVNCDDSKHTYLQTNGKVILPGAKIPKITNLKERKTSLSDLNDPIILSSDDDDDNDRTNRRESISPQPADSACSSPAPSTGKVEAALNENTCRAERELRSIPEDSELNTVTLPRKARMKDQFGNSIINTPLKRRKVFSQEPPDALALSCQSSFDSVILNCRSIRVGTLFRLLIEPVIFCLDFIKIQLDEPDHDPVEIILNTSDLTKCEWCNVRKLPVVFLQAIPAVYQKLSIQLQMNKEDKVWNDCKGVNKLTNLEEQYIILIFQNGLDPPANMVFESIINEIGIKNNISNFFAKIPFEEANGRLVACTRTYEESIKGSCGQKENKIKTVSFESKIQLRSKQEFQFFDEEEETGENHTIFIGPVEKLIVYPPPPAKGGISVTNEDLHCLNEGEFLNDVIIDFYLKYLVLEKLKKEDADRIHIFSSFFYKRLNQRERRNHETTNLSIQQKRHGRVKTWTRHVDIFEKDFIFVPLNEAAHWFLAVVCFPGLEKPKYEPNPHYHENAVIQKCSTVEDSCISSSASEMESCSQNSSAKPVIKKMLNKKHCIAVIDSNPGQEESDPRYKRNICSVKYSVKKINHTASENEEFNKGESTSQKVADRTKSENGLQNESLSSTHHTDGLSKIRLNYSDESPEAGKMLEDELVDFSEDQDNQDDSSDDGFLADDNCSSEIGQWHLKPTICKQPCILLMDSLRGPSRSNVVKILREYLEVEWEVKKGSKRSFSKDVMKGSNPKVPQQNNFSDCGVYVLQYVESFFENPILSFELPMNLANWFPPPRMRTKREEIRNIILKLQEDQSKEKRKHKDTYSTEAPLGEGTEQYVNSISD

[9] = biological target: T5, Sentrin-specific protease 6; experiment: SAR Analysis of small molecule inhibitors of Sentrin-specific protease 6 (SENP6) using a Luminescent assay. [Related pubchem assays (depositor defined):AID2582, AID2599]; type: functional
Caspase-3 [10] = biological target: T3, Caspase-3; experiment: SAR Analysis of small molecule inhibitors of Sentrin-specific proteases (SENPs) using a Caspase-3 Selectivity assay. [Related pubchem assays (depositor defined):AID2540, AID2599, AID434973, AID489001]; type: functional
[11] = biological target: T2, Sentrin-specific protease 7; experiment: inhibition of human SENP7 cleavage activity – biochemical, luminescence, SAR follow-up (AID 504497); type: functional
[12] = biological target: T4, Sentrin-specific protease 8; experiment: inhibition of human SENP8 cleavage activity – biochemical, luminescence, SAR follow-up (AID 504501); type: functional
Candida albicans [13] = experiment: resistant Candida growth with fluconazole co-treatment – CaCi-8 strain, Alamar Blue, dry powder, set 3, dose response (AID 488905); type: functional, organism-based
Candida albicans [14] = experiment: Candida growth inhibition combined with fluconazole – CaCi-2 strain, Alamar Blue, dry powder, set 3, dose response (AID 488907); type: functional, organism-based

Sequence of Glycogen synthase kinase-3 beta (P49841 whole entry): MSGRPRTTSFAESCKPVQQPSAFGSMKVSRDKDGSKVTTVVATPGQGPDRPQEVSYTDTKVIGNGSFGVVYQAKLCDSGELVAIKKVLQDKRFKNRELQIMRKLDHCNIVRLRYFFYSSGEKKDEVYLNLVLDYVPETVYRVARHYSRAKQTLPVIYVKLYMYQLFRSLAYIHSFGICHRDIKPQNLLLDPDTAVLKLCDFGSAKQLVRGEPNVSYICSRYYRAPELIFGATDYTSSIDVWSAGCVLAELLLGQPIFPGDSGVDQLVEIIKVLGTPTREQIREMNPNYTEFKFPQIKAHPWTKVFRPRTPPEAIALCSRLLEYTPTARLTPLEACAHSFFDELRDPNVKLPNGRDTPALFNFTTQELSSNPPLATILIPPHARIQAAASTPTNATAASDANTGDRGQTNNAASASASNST
Sequence of Aurora kinase A (O14965 whole entry): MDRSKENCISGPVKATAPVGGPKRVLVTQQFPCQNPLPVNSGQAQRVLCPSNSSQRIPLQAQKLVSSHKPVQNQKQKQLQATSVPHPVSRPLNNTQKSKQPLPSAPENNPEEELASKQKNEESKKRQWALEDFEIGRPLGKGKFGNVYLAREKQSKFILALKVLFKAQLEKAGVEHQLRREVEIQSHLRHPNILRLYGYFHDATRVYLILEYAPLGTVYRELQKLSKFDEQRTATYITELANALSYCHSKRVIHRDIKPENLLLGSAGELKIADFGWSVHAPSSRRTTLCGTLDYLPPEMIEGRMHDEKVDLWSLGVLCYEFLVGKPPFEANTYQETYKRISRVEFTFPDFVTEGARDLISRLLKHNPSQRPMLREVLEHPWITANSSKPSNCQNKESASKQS

Compound: O=C(Nc1ccccc1)Nc1nccs1
- Ki [1]: 10 µM (active)
- Ki (Aurora kinase A): 15.8 µM (active)
- EC50 [2]: > 50 µM (active)

Compound: Cc1cccc2c1N(CCCOc1ccc(C(C)(C)C)cc1)C(=O)C2=O
- IC50 [3]: > 66.6 µM (inactive)
- IC50 [4]: 24.3 µM (inactive)
- IC50 (Apelin receptor): > 66.6 µM (inactive)

Compound: O=C(N/N=C/c1c[nH]c2ccccc12)c1[nH]c2ccc(Cl)cc2c1-c1ccccc1
- IC50 [5]: > 99 µM (inactive)
- IC50 (Caspase-3 [6]): > 99 µM (inactive)
- IC50 [7]: > 99 µM (inactive)
- IC50 [8]: > 99 µM (inactive)

Compound: Cc1c(C(=O)Nc2nc3ccc(Cl)cc3s2)oc2ccccc12
- IC50 [9]: > 99 µM (inactive)
- IC50 (Caspase-3 [10]): > 99 µM (inactive)
- IC50 [11]: > 99 µM (inactive)
- IC50 [12]: > 99 µM (inactive)

Compound: O=C(c1ccc(Cl)cc1)N1CCN(c2ccc(C(F)(F)F)cn2)CC1
- AC50 (Candida albicans [13]): 130 µM (active)
- AC50 (Candida albicans [14]): 0.259 µM (active)

— ChEMBL document CHEMBL1201862, “PubChem BioAssay data set” (2004)
